Laboratory results reported in patent US20220354805A1, “Cannabidiol (CBD) as Chemical for Treating Aging-related Degenerative Diseases and Promoting Health Aging” (Hemix Biotech Limited, priority 2021, published 2022).

Key:
[1] = system: wildtype and LMNA^G609G/G609G MEFs; test: Senescence-associated beta-galactosidase staining of MEFs; format: cell-based, mouse; settings: vs control cells
Description: In the step of determining the senescence lever and optimal concentration, the primary mouse embryonic fibroblasts (MEFs) at passage 3 were seeded and cultured in chamber slides. The slides were washed twice with ice-cold phosphate buffered saline (PBS). Using senescence-associated beta-galactosidase staining kit, the cells were fixed for 10 minutes with provided paraformaldehyde and washed twice with PBS. The slides were then incubated with the staining solution at 37° C. overnight. On the following day, the slides were washed twice with PBS and mounted with 40% glycerol in PBS. The stained cells were observed under a light microscope. Senescent cells were stained blue while proliferating cells were unstained. The percentage of senescent cells was quantified by counting the number of stained and unstained cells.

[2] = system: bone marrow stromal cells of LMNA^G609G/G609G mice; test: Crystal violet staining colony formation assay of mouse bone marrow stromal cells; format: in vivo; settings: mice treated with 50 mg/kg CBD, vs LMNA^G609G/G609G control mice and wildtype mice; 12 days of culture
Description: In the step of isolating the mouse bone marrow stromal cells for measurement of the clonogenicity, mice were sacrificed and placed inside tissue culture hood. The femur was dissected out using sterile utensils. The mouse bone marrow stromal cells were flushed out of femur using a 29G needle with 1 mL of ice-cold phosphate buffered saline (PBS). The bone marrow stromal cells collected were centrifuged at 3000 rpm for 5 minutes at 4° C. The supernatant was removed, and the cell pellet was resuspended in Minimum Essential Medium Eagle—alpha modification (α-MEM) supplemented with 20% fetal bovine serum (FBS) and penicillin-streptomycin (100 units/mL). The medium was changed every 3 days. After 12 days of culture, crystal violet staining colony formation assay was carried out. The cells were washed twice with ice-cold PBS. The cells were fixed with ice-cold methanol for 10 minutes. Then the cells were stained with 0.5% crystal violet dissolved in 25% methanol for 10 minutes at room temperature. The crystal violet solution was then removed, and the cells were rinsed with double-distilled water (ddH2O) until the rinse became clear. The plates were dried off, and pictures were taken for analysis.

C=C(C)[C@@H]1CCC(C)=C[C@H]1c1c(O)cc(CCCCC)cc1O [CBD, Cannabidiol]
senescence levels ([1]; 10 μM CBD, 8 days): decrease in senescence levels | senescence levels (toxicity effect) ([1]; 50 μM CBD, 4 days): increase in senescence levels | number of colonies [2]: higher number of colonies
